Test results published in ChEMBL document CHEMBL1149654, “Caprolactams as potent CGRP receptor antagonists for the treatment of migraine” (Bioorg Med Chem Lett, 2007).

Assays:
[1] = target: T1, Calcitonin-gene-related peptide receptor, CALCRL/RAMP1 (Homo sapiens, UniProt O60894+Q16602); assay: Antagonist activity at human CGRP receptor in E10 cells assessed as inhibition of cAMP production; format: functional, cell-based
[2] = target: T1, Calcitonin-gene-related peptide receptor, CALCRL/RAMP1; assay: Displacement of [125I]CGRP from human CL receptor in RAMP1 membranes; format: cell membranes
[3] = target: T1, Calcitonin-gene-related peptide receptor, CALCRL/RAMP1; assay: Displacement of [125I]CGRP from human CL receptor in RAMP1 membranes at 100 uM; format: cell membranes
[4] = Clearance in rat at 10 mg/kg, po; format: ADME, organism-based; design: dose 10 mg/kg, route oral; settings: in vivo
[5] = Bioavailability in rat at 10 mg/kg, po; format: ADME, organism-based; settings: in vivo

T1 sequence (O60894 whole entry): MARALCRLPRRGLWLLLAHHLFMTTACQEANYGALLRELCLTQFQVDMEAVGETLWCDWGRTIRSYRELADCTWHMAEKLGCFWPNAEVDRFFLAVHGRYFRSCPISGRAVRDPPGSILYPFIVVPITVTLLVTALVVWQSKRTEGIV
T1 sequence (Q16602 whole entry): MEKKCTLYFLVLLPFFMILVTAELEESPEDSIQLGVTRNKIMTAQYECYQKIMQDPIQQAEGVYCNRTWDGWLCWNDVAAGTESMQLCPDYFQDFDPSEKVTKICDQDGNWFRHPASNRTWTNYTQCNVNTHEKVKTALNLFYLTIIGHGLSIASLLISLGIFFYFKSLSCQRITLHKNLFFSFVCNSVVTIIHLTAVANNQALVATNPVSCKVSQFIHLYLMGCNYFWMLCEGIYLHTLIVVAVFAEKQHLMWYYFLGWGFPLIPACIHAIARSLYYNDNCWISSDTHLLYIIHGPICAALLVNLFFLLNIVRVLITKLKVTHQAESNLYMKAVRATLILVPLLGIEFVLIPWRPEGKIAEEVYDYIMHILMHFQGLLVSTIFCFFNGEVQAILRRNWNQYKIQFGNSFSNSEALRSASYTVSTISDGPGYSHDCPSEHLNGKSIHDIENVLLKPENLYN

Structure (SMILES)	IC50 [1] [nM]	Ki [2] [nM]	Activity [3] [%]	CL/F [4] [mL/min/kg]	bioavailability [5] [%]
O=C(NC1CC(c2ccccc2)CCN(CC2CC2)C1=O)N1CCC(n2nc(-c3ccccc3)[nH]c2=O)CC1 (racemic; 28)	488	266			
O=C(N[C@@H]1CC[C@@H](c2ccccc2)CN(CC2CC2)C1=O)N1CCC(N2CCc3ccccc3NC2=O)CC1	32	29			
O=C(N[C@@H]1CCCCN(Cc2ccccc2)C1=O)N1CCC(N2Cc3ccccc3NC2=O)CC1		1800			
O=C(NC1CCC(c2ccccc2)CN(CC2CC2)C1=O)N1CCC(N2Cc3ccccc3NC2=O)CC1 (racemic; 18)	54	31			
O=C(N[C@@H]1CCN(Cc2ccccc2)C1=O)N1CCC(N2Cc3ccccc3NC2=O)CC1			63		
O=C(N[C@H]1CCCCN(Cc2ccccc2)C1=O)N1CCC(N2Cc3ccccc3NC2=O)CC1		11100			
CC(C)(C)OC(=O)CN1C(=O)C(NC(=O)N2CCC(N3Cc4ccccc4NC3=O)CC2)CCCC1c1ccccc1 (racemic; 12)		17000			
O=C(N[C@@H]1CC[C@@H](c2ccccc2)CN(CC2CC2)C1=O)N1CCC(n2nc(-c3ccccc3)[nH]c2=O)CC1	45	29			
CC(C)(C)OC(=O)CN1C(=O)[C@H](NC(=O)N2CCC(N3Cc4ccccc4NC3=O)CC2)CCC[C@@H]1c1ccccc1		934			
O=C(NC1CC(c2ccccc2)CCN(CC2CC2)C1=O)N1CCC(n2nc(-c3ccccc3)[nH]c2=O)CC1 (racemic; 27)	3820	544			
CC(C)(C)OC(=O)CN1C(=O)C(NC(=O)N2CCC(N3Cc4ccccc4NC3=O)CC2)CCCC1c1ccccc1 (racemic; 13)	2120	1990			
O=C(NC1CCC(c2ccccc2)CN(CC2CC2)C1=O)N1CCC(N2Cc3ccccc3NC2=O)CC1 (racemic; 17)	778	695			
CC(C)N1C(=O)[C@H](NC(=O)N2CCC(N3Cc4ccccc4NC3=O)CC2)N=C(c2ccccc2)c2ccccc21	65	55			
O=C(NC1CC(c2ccccc2)CCN(CC2CC2)C1=O)N1CCC(n2cc(-c3ccccc3)[nH]c2=O)CC1 (racemic; 29)	133	35			
O=C(N[C@H]1CC[C@H](c2ccccc2)CN(CC2CC2)C1=O)N1CCC(N2Cc3ccccc3NC2=O)CC1	6630	5830			
CC(C)N1C(=O)C(NC(=O)N2CCC(N3Cc4ccccc4NC3=O)CC2)CCc2ccccc21 (configuration not stated)	3100	3700			
O=C(N[C@@H]1CCCN(Cc2ccccc2)C1=O)N1CCC(N2Cc3ccccc3NC2=O)CC1			46		
O=C(NC1CC(c2ccccc2)CCN(CC2CC2)C1=O)N1CCC(n2cc(-c3ccccc3)[nH]c2=O)CC1 (racemic; 30)	141	17			
O=C(N[C@@H]1CC[C@@H](c2ccccc2)CN(CC2CC2)C1=O)N1CCC(N2Cc3ccccc3NC2=O)CC1	36	25			
O=C(N[C@@H]1CCC[C@H](c2ccccc2)N(CC2CC2)C1=O)N1CCC(N2Cc3ccccc3NC2=O)CC1	408	689			
O=C(N[C@@H]1CCCCN(CC2CC2)C1=O)N1CCC(N2Cc3ccccc3NC2=O)CC1	2400	7800			
O=C(N[C@@H]1CC[C@@H](c2ccccc2)CN(CC2CC2)C1=O)N1CCC(n2cc(-c3ccccc3)[nH]c2=O)CC1	4	2		36	27
CC(C)(C)OC(=O)CN1C(=O)[C@@H](NC(=O)N2CCC(N3Cc4ccccc4NC3=O)CC2)CCC[C@H]1c1ccccc1	471	> 10000			
